Experimental data reported in patent publication US20140343480A1, “SYSTEMS, METHODS, AND COMPOSITIONS FOR CROSS-LINKING” (AVEDRO, INC., priority 2013, published 2014).
≈ marks a conversion by molar mass, not a printed value. Blank lines part the entries; values can stand above or below the compound they belong to.

Key:
corneal collagen [1] = assay: Biaxial extensometry (tensiometry) of corneal flaps; design: species or system Pig; conditions: for displacement-force (corneal stiffness): 1% solution in dH2O; for displacement vs. force (corneal stiffening): 30 mW/cm^2, pulsed 1 s on/1 s off, 8 min, oxygen, vs unexposed controls
Description: Pig eyes were shipped overnight on ice from an abattoir (SiouxPreme, Sioux City, Iowa), rinsed in saline. Eyes were cleaned and epithelium was removed. […] If specified, eyes were placed in a beaker with a light oxygen stream for 2 minutes in the incubation chamber prior to irradiation. Corneas were pan-corneally irradiated with a top hat beam (3% root mean square) for the chosen time (4 or 8 minutes) with 365-nm light source (UV LED NCSU033B[T]; Nichia Co., Tokushima, Japan) at the chosen irradiance (30 mW/cm^2, pulsed or non-pulsed) which was measured with a power sensor (model PD-300-UV; Ophir, Inc., Jerusalem, Israel) at the corneal surface. Corneal flaps (approximately 200 μm thick) were excised from the eyes with aid of Intralase femtosecond laser (Abbot Medical Optics, Santa Ana, Calif.). The average thickness of the corneal flaps was calculated as a difference between the measurements before and after the excision from the eyes with an ultrasonic Pachymeter (DGH Technology, Exton, Pa.). The flaps were placed into a biaxial extensometer (CellScale Biotester 5000, Waterloo, ON), using biorake attachments with 5 tines spanning a width of 3 mm. Each sample was stretched at a constant rate of 4 μm/s in saline at 37° C. until sample failure. The flaps were washed with distilled water 2 times, dried with filter paper, washed with dH2O two times, and then dried in a vacuum until the weight change became less than 10% (Rotary vane vacuum pump RV3 A652-01-903, BOC Edwards, West Sussex, UK). Each flap was digested for 2.5 hours at 65° C. with 2.5 units/ml of papain (from Papaya latex, Sigma) in 1 ml of papain buffer [BBBS (pH 7.0-7.2), 2 mM L-cysteine and 2 mM EDTA]. Papain digests were centrifuged for 5 seconds at 2200×G (Mini centrifuge 05-090-100, Fisher Scientific), diluted 0.5 times with 1XBBBS and fluorescence of the solutions was measured with excitation of λex=360 nm in a QM-40 Spectrofluorometer (Photon Technology Int., London, Ontario, Canada). The fluorescence of the papain buffer was taken into account by measuring fluorescence in the absence of tissue and subtracting this value from the fluorescence of the samples.
Pig eyes were shipped overnight on ice from an abattoir (SiouxPreme, Sioux City, Iowa), rinsed in saline. Eyes were cleaned and epithelium was removed. […] Corneas were pan-corneally irradiated with a top hat beam (3% root mean square) for 4 minutes with 365-nm light source (UV LED NCSU033B[T]; Nichia Co., Tokushima, Japan) at irradiance 30 mW/cm^2, which was measured with a power sensor (model PD-300-UV; Ophir, Inc., Jerusalem, Israel) at the corneal surface. Corneal flaps (approximately 200 μm thick) were excised from the eyes with aid of Intralase femtosecond laser (Abbott Medical Optics, Santa Ana, Calif.). The average thickness of the corneal flaps was calculated as a difference between the measurements before and after the excision from the eyes with an ultrasonic Pachymeter (DGH Technology, Exton, Pa.). The flaps were then placed into a biaxial extensometer (CellScale Biotester 5000, Waterloo, ON), using biorake attachments with 5 tines spanning a width of 3 mm. Each sample was stretched at a constant rate of 4 μm/s in saline at 37° C. until sample failure. The flaps were washed with distilled water, dried in a vacuum until the weight change became less than 10% (Rotary vane vacuum pump RV3 A652-01-903, BOC Edwards, West Sussex, UK). Each flap was digested for 2.5 h at 65° C. with 2.5 units/ml of papain (from Papaya latex, Sigma) in 1 ml of papain buffer [BBBS (pH 7.0-7.2), 2 mM L-cysteine and 2 mM EDTA]. Papain digests were centrifuged for 5 seconds at 2200×G (Mini centrifuge 05-090-100, Fisher Scientific), diluted 0.5 times with 1XBBBS and fluorescence of the solutions was measured with excitation of λex=360 nm in a QM-40 Spectrofluorometer (Photon Technology Int., London, Ontario, Canada).

corneal collagen [2] = assay: Papain digest fluorescence of corneal flaps (collagen cross-linking); design: species or system Pig; conditions: for fluorescence (relative to the untreated controls, Fo) recorded at 450 nm: 1% solution in dH2O; for fluorescence of the corneal samples after digestion with papain (excitation 360 nm): 30 mW/cm^2, pulsed 1 s on/1 s off, 8 min, oxygen, vs controls not exposed to UV; for fluorescence of the digested corneas in the area 450 nm: 20 min soak, 30 mW/cm^2, 4 min continuous UVA, vs non-cross-linked control
Description: Corneas were pan-corneally irradiated with a top hat beam (3% root mean square) for 8 minutes (7.2 J total dose) in a cylinder filled with oxygen with 365-nm light source (pulsing 1 second on, 1 second off) (UV LED NCSU033B[T]; Nichia Co., Tokushima, Japan) at the chosen irradiance (30 mW/cm^2) which was measured with a power sensor (model PD-300-UV; Ophir, Inc., Jerusalem, Israel) at the corneal surface. Before the start of irradiation, oxygen's exposure was 2 minutes. Corneal flaps (approximately 200 μm thick) were excised from the eyes with aid of Intralase femtosecond laser (Abbot Medical Optics, Santa Ana, Calif.). The average thickness of the corneal flaps was calculated as a difference between the measurements before and after the excision from the eyes with an ultrasonic Pachymeter (DGH Technology, Exton, Pa.). The flaps were washed with distilled water two times, dried with filter paper, washed with dH2O two times, and then dried in a vacuum until the weight change became less than 10% (Rotary vane vacuum pump RV3 A652-01-903, BOC Edwards, West Sussex, UK). Each flap was digested for 2.5 hours at 65° C. with 2.5 units/ml of papain (from Papaya latex, Sigma) in 1 ml of papain buffer [BBBS (pH 7.0-7.2), 2 mM L-cysteine and 2 mM EDTA]. Papain digests were centrifuged for 5 seconds at 2200×G (Mini centrifuge 05-090-100, Fisher Scientific), diluted 0.5 times with BBBS and fluorescence of the solutions was measured with excitation of λex=360 nm in a QM-40 Spectrofluorometer (Photon Technology Int., London, Ontario, Canada). The fluorescence of the papain buffer was taken into account by measuring fluorescence in the absence of tissue and subtracting this value from the fluorescence of the samples.
This method was used because the non-enzymatic cross-link density in collagens was previously quantified with use of papain digest fluorescence. There is a linear relationship between fluorescence and increasing cross-linking activity.
Corneal flaps were soaked in either distilled water or diluted H2O2 (1%) for 20 minutes. Flaps soaked in H2O2 were either rinsed twice with distilled water or removed from H2O2 and placed in 0.1% FeSO4 solution in distilled water for an additional 20 minute soak followed by a 2× rinse with distilled water. Flaps were dried in a vacuum until the weight change became less than 10% (Rotary vane vacuum pump RV3 A652-01-903, BOC Edwards, West Sussex, UK). Each flap was digested for 2.5 hours at 65° C. with 2.5 units/ml of papain (from Papaya latex, Sigma) in 1 ml of papain buffer [BBBS (pH 7.0-7.2), 2 mM L-cysteine and 2 mM EDTA]. Papain digests were centrifuged for 5 seconds at 2200×G (Mini centrifuge 05-090-100, Fisher Scientific), diluted 0.5 times with BBBS and fluorescence of the solutions was measured with excitation of λex=360 nm in a QM-40 Spectrofluorometer (Photon Technology Int., London, Ontario, Canada). The fluorescence of the papain buffer was taken into account by measuring fluorescence in the absence of tissue and subtracting this value from the fluorescence of the samples.
Pig eyes were shipped overnight on ice from an abattoir (SiouxPreme, Sioux City, Iowa), rinsed in saline. Eyes were cleaned and epithelium was removed. […] If specified, eyes were placed in a beaker with a light oxygen stream for 2 minutes in the incubation chamber prior to irradiation. Corneas were pan-corneally irradiated with a top hat beam (3% root mean square) for the chosen time (4 or 8 minutes) with 365-nm light source (UV LED NCSU033B[T]; Nichia Co., Tokushima, Japan) at the chosen irradiance (30 mW/cm^2, pulsed or non-pulsed) which was measured with a power sensor (model PD-300-UV; Ophir, Inc., Jerusalem, Israel) at the corneal surface. Corneal flaps (approximately 200 μm thick) were excised from the eyes with aid of Intralase femtosecond laser (Abbot Medical Optics, Santa Ana, Calif.).

[3] = Solubility of folic acid in phosphate buffer; type: physicochemical; conditions: pH 7, aqueous buffer, 25° C., pH of the final solution 7.0
Text: FA is soluble in water with dependence on pH and temperature. […] FA has UV light absorbance at 400 nm and below (the long wave peak at 360 nm as shown in FIG. 16), and fluorescence with maximum around 460 nm (as shown in FIG. 17).

human serum albumin = human serum albumin (Homo sapiens, UniProt P02768); conditions: irradiated in the presence of human serum albumin; cited from earlier work
human serum albumin, sequence (P02768 25-609): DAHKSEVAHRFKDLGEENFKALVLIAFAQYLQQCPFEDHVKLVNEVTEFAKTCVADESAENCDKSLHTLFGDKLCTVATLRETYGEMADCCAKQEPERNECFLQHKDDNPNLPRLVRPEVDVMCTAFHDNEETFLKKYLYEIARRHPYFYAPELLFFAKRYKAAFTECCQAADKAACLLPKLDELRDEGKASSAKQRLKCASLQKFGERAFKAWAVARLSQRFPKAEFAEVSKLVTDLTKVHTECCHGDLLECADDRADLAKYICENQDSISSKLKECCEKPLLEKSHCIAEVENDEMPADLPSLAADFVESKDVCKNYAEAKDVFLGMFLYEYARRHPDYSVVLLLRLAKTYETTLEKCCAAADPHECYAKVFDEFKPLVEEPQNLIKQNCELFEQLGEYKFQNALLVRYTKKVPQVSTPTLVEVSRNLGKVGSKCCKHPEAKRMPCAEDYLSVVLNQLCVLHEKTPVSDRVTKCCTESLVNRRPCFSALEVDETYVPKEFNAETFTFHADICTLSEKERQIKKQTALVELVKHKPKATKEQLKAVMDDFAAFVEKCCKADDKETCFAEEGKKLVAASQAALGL

- displacement-force (corneal stiffness) (corneal collagen [1]; UV 365 nm, 30 mW, 4 min): increase of the corneal stiffness
- displacement-force (corneal stiffness) (corneal collagen [1]; without UV light): does not cross-link corneal flaps
Compound: CC(=O)C(C)=O [2,3-butanedione]
- fluorescence (relative to the untreated controls, Fo) recorded at 450 nm (corneal collagen [2]; UV 365 nm, 30 mW, 4 min): increase of the corneal stiffness and fluorescence output
- fluorescence (relative to the untreated controls, Fo) recorded at 450 nm (corneal collagen [2]; without UV light): does not cross-link corneal flaps

- solubility [3]: 5500 µg/mL (≈ 12.5 mM)
- displacement vs. force (corneal stiffening) (corneal collagen [1]; UV 365 nm): significant stiffening
Compound: Nc1nc2ncc(CNc3ccc(C(=O)N[C@@H](CCC(=O)O)C(=O)O)cc3)nc2c(=O)[nH]1 [FA, Folic acid]
- fluorescence of the corneal samples after digestion with papain (excitation 360 nm) (corneal collagen [2]; UV 365 nm): fluorescence of the cross-linked collagen samples increases

Compound: Cc1c(C(=O)NCCO)[n+]([O-])c2ccccc2[n+]1[O-] [Olaquindox, N-(2-hydroxyethyl)-3-methyl-2-quinoxalinecarboxamide 1,4-dioxide]
- biaxial extensiometry (corneal collagen stiffness) (corneal collagen [1]; 0.4% in PBS, UVA 30 mW/cm2, 4 min CW or 8 min pulsed + O2, vs controls): became stiffer
- relative fluorescence recorded at 450 nm (corneal collagen [2]; 0.4% in PBS, UVA 30 mW/cm2, 4 min CW or 8 min pulsed + O2, vs non-irradiated control): acquired fluorescence at 450 nm
- time to complete disappearance on irradiation (human serum albumin): ≤ 20 s

- displacement vs. force (corneal stiffening) (corneal collagen [1]; UV 365 nm): significant stiffening
- average force vs. displacement of corneal flap (tensiometry) (corneal collagen [1]; vs control group, UVA 30 mW/cm^2, 4 min, CW): higher than the control group
Compound: Cc1cc2nc3c(=O)[nH]c(=O)nc-3n(C[C@H](O)[C@H](O)[C@H](O)CO)c2cc1C [riboflavin]
- fluorescence of the digested corneas in the area 450 nm (corneal collagen [2]; 0.1% in BBBS): elevated fluorescence in the area 450 nm
- fluorescence of the corneal samples after digestion with papain (excitation 360 nm) (corneal collagen [2]; UV 365 nm): fluorescence of the cross-linked collagen samples increases

Compound: Cc1cc2nc(C(=O)[O-])c(=O)n(C[C@H](O)[C@H](O)[C@H](O)CO)c2cc1C.O.[Na+] [sodium salt of 1,2-Dihydro-6,7-dimethyl-2-keto-1-D-ribityl-3-quinoxalinecarboxylic acid monohydrate]
- fluorescence of the digested corneas in the area 450 nm (corneal collagen [2]; 0.1% in BBBS): elevated fluorescence in the area 450 nm
- fluorescence of the digested corneal flaps (excitation 360 nm) (corneal collagen [2]; 0.1% in BBBS, de-oxygenated with argon, irradiated 4 min at 30 mW/cm^2 in CO2 atmosphere): higher than the fluorescence of the corneal flaps cross-linked with riboflavin

Compound: hydrogen peroxide [H2O2]
- fluorescence counts of papain digested corneal flaps (corneal collagen [2]; flaps soaked 20 min in 1% H2O2, with or without a further 20 min in 0.1% Iron(II) (FeSO4), no UV): not when they were exposed to only H2O2
